Experiments:
CXCL-1 and CXCL-8 = experiment: ELISA of CXCL1 and CXCL8, OE21 cells; format: cell-based, human; details: 5×1 μM
Description: ELISA determination of CXCL1 and CXCL8 (IL-8) protein levels in untreated and 5×1 μM UNBS5162-treated OE21 cells. “5×1 μM” means that tumor cells were treated in vitro for one day with 1 μM UNBS5162 and then the culture medium was replaced by fresh medium containing 1 μM UNBS5162; this procedure of renewal of cell medium containing 1 μM UNBS5162 was repeated for five consecutive days, with determination of chemokine concentration being performed 24 h (+24 h) or 72 h (+72 h) after the 5th (last) treatment of tumor cells with UNBS5162. The concentrations of the two specific chemokines (expressed as pg/mL) were normalized by the cell number determined in each sample. Each sample was assessed in triplicate. The data are presented as means (grey columns)±SEM (thin bars) in FIG. 9.

[1] = system: orthotopic Hs683 xenograft; experiment: Orthotopic Hs683 xenograft nude mice model, survival; format: in vivo; details: Temodal p.o. 40 mg/kg three times a week for three weeks followed by UNBS5162 i.v. 10 mg/kg once a week for three weeks
Description: In order to evaluate UNBS5162-mediated in vivo anti-tumor effect in glioma models, an orthotopis Hs683 model was used that was previously evidenced as expressing pro-angiogenic chemokines at the most high level. […] In line with this, an experiment combining Temodal to UNBS5162 was performed.
Thus, combining pro-autophagic therapy with an inhibitor of pro-angiogenic chemokines might represent a new manner to treat glioblastoma, at least some types that express high levels of pro-angiogenic chemokines.

CFC-GEMM = experiment: HALO hematotoxicity assay, human CFC-GEMM; format: cell-based; details: 7 days culture, iATP
Description: (§1) Investigation of the hematotoxic potential of UNBS5162 was undertaken by HemoGenix (Colorado Springs, Colo.). The effects of UNBS5162 on stem and progenitor cell populations from murine and human bone marrow were assessed using HALO (Hematopoietic/Hematotoxicity Assay through Luminescence Output) technology. Stem and hematopoietic progenitor cell populations were isolated from mouse and human bone marrow samples, plated at a concentration of 1.0×10^4 cells/well and cultured for 5 and 7 days, respectively, in the presence of growth factors and increasing concentrations of UNBS5162 ranging from 0.5 nM to 50 μM. The proliferative or growth potential of cell populations was determined from intracellular ATP (iATP) concentrations and a luciferin/luciferase bioluminescence signal detection system. All samples were assayed in eight replicates. The results are presented as estimated inhibitory concentration (IC) values.

GM-CFC = experiment: HALO hematotoxicity assay, human GM-CFC; format: cell-based; details: 7 days culture, iATP
Description: as §1

DU-145 [2] = experiment: MTT colorimetric assay, DU-145 cells; format: cell-based; details: Homo sapiens, 72 h, 3 days of culturing, mean of six determinations, read-out: IC50 (μM) In Vitro Growth Inhibition
Description: The overall growth of human cancer cell lines was determined by means of the calorimetric MTT (3-[4,5-dimethylthiazol-2-yl]-diphenyl tetrazolium bromide; Sigma) assay, as detailed previously.

DU-145 [3] = experiment: Lysosomal membrane permeabilization (LMP), DU-145; format: cell-based, human; details: 72 hours, 10 μM
Description: It is well known that lysosomes control cell death at several levels. In response to endogenous or exogenous stress (including chemotherapy), lysosomal membrane permeabilization (LMP) can occur, leading to the release of catabolic hydrolases that can mediate caspase-dependent apoptosis, caspase-independent apoptosis-like cell death or even necrosis following high levels of LMP.

LC3-II = LC3-II immunoblot, DU-145; format: cell-based, human; details: 10 μM
Hs683 or U373 cells = experiment: Apoptosis by Annexin V-FITC flow cytometry, glioma cells; format: cell-based, human; details: 10 μM for 72 h
Description: UNBS5162-induced apoptotic effects as evaluated by flow cytometry with Annexin V-FITC staining of Hs683 or U373 cells either left untreated (0 μM) or treated with 1 and 10 μM UNBS5162 for 72 h, either as a single treatment (gray bars) or as repeated (“chronic”; black bars) treatment (i.e. 1 μM or 10 μM each day for five days, “5×1”). The data are presented as means+SEM. “*” means that all GBM cells died before the end of the experiment.

Mk-CFC [4] = experiment: HALO hematotoxicity assay, human Mk-CFC; format: cell-based; details: 7 days culture, iATP
Description: as §1

E2F1 = E2F1 expression (Western blot), DU-145; format: cell-based, human; details: 10 μM
OE21 xenograft = experiment: s.c. metastatic OE21 xenograft nude mice model; format: in vivo; details: UNBS5162 10 mg/kg i.v. with cisplatin 5 mg/kg i.p.
Description: To enable the achievement of pertinent in vivo studies, a highly metastatic s.c. model was developed by grafting OE21 cells subcutaneously into nude mice. […] In line with this, an experiment combining cisplatin to UNBS5162 was performed.
The treatment protocol included following conditions: • UNBS5162: N-{2-[2-(dimethylamino)ethyl]-1,3-dioxo-2,3-dihydro-1H-benzo[de]isoquinolin-5-yl}urea
Dose (mg/kg): 10 mg/kg (1.35 eq lactic acid) Dose volume: 200 μL/mouse Schedule: 3 injection(s) per week; 5 weeks (3i×5w)
Dose (mg/kg): 5 mg/kg (saline) Dose volume: 200 μL/mouse Schedule: 1 injection per week; 5 weeks (1×5)
Cisplatine (1×5)×5 mg/kg i.p.=>group 1 UNBS5162 (3×5)×10 mg/kg i.v.=>group 3 Cisplatine (1×3)×5 mg/kg i.p.=>1 w without treatment=>UNBS5162 (3×5)× […] i.v.=>group 4

[5] = system: platelets, red and white blood cells; experiment: Compound-induced hematotoxicity and tolerance in mice; format: in vivo; details: 20 mg/kg intra-venous, three times a week for five weeks
Description: We have determined the compound-induced potential hematotoxicity of the compound produced according to example 2 or example 7 on platelets, red and white blood cells in comparison of the effect of amonafide on platelets, red and white blood cells. The effect of amonafide was evaluated at 10 mg/kg and 20 mg/kg, by the intra-peritoneal administration to mice. The administration schedule was five times a week for three consecutive weeks. The effect of the compound produced according to example 2 or example 7 was evaluated at 20 mg/kg, by the intra-venous administration to mice. The administration schedule was three times a week (on Mondays, Wednesdays and Fridays) for five consecutive weeks. The animals were sacrificed 3 days after the last injection. There were 10 mice per group. FIG. 1 illustrates results of this assay for compound-induced hematotoxicity on platelets.

Mk-CFC [6] = experiment: HALO hematotoxicity assay, mouse Mk-CFC; format: cell-based; details: 5 days culture, iATP
Description: as §1

CN(C)CCN1C(=O)c2cccc3cc(NC(N)=O)cc(c23)C1=O [UNBS5162, N-{2-[2-(dimethylamino)ethyl]-1,3-dioxo-2,3-dihydro-1H-benzo[de]isoquinolin-5-yl}urea]
CXCL-1 and CXCL-8 protein levels (ELISA) (CXCL-1 and CXCL-8): a marked decrease in CXCL-1 and CXCL-8
survival period of tumor bearing mice [1]: significantly prolonged the survival period of tumor bearing mice
IC50 (CFC-GEMM; 168 h): 2.57 µM
IC90 (CFC-GEMM; 168 h): 12.8 µM
IC75 (CFC-GEMM): 5.67 µM
IC50 (GM-CFC; 168 h): 3.74 µM
IC90 (GM-CFC; 168 h): 19.9 µM
IC75 (GM-CFC): 8.12 µM
IC50 (DU-145 [2]): 16 µM
lysosomal membrane permeabilization (LMP) (DU-145 [3]): a marked drug-induced LMP process appeared
LC3-II protein (marker of autophagy) (LC3-II): induced the up-regulation of LC3-II protein
apoptotic events (Annexin V-FITC) (Hs683 or U373 cells): induces moderate apoptotic events
IC50 (Mk-CFC [4]; 168 h): 4.05 µM
IC90 (Mk-CFC [4]; 168 h): 20.1 µM
IC75 (Mk-CFC [4]): 9.22 µM
E2F1 expression (E2F1): a decrease but not the complete disappearance of Rb protein and E2F1 expression
anti-tumor effect in combination with cisplatin (tumor size) (OE21 xenograft): enhanced the activity of cisplatin
tolerance of chronic administrations [5]: tolerated 15 chronic administrations
IC50 (Mk-CFC [6]; 120 h): 5.94 µM
IC90 (Mk-CFC [6]; 120 h): 9.61 µM
IC75 (Mk-CFC [6]): 7.53 µM

— US20090186915A1, “Compositions and methods for treatment of glioblastoma, gliosarcoma, NSCLC, and head and neck cancer” (Unibioscreen S. A., priority 2006, published 2009)
